Drawing on US5393761A, “3-arylindole compounds” (H. Lundbeck A/S, priority 1990, dated 1995), this text covers IC50 for 23 compounds.

Structures can show the parent of a compound that is named as a salt.

For test [1], the target named is T1, serotonin S2 (5-HT2) receptors in rat cortex (Rattus norvegicus, UniProt P14842).
T1 construct: Serotonin S2 (5-HT2) receptors in membranes from rat; from tissue; host or cells: cerebral cortex membranes of male Wistar rats (printed 'conical tissue', a misprint for cortical)
Description: Inhibition of ^3H-ketanserin binding to serotonin S2 (5-HT2) receptors in rat cortex in vitro. Conditions: 0.5 nM ^3H-ketanserin, rat cortex membranes, 37° C., 30 min. The protocol: Method in Hyttel, Pharmacology & Toxicology, 61, 126-129, 1987.
Male Wistar (Mol:Wist) rats (125-250 g) are sacrificed and conical tissue is dissected and weighed. The tissue is homogenized (Ultra Turrax, 10 sec.) in 10 ml of ice-cold 50 mM tris buffer pH 7.7 (at 25° C.). The centrifuge glassware used in this step has been rinsed by sonication for 10 min. in ethanol. The homogenate is centrifuged twice at 20,000 g for 10 min. at 4° C. with rehomogenization of the pellet in 10 ml ice-cold buffer. The final pellet is homogenized in 500 vol (w/v)ice-cold buffer.
Incubation tubes kept on ice in triplicate receive 100 μl Of drug solution in water (or water for total binding) and 2000 μl of tissue suspension (final tissue content corresponds to 4 mg original tissue). […] After incubation for 30 min. the samples are filtered under vacuum (0-50 mBar) through Whatman GF/F filters (25 mm). The tubes are rinsed with 5 ml ice-cold buffer which are then poured on the filters. Thereafter, the filters are washed with 2×5 ml of buffer. The filters are placed in counting vials and 4 ml of appropriate scintillation fluid (e.g. Picofluor ™15) are added. After shaking for 1 h and storage 2 hrs in the dark the content of radioactivity is determined by liquid scintillation counting. Specific binding is obtained by subtracting the nonspecific binding in the presence of 1 μM mianserin. For determination of the inhibition of binding five concentrations of drugs covering 3 decades are used.
The IC50 value is determined as the concentration at which the binding is 50% of the total binding in control samples minus the nonspecific binding in the presence of 1 μM mianserin.

For test [2], the target named is dopamine D-2 receptors in rat corpus striatum (Rattus norvegicus, UniProt P61169). As to the kind of experiment: Inhibition of ^3H-spiperone (spiroperidol) binding to dopamine D-2 receptors in rat corpus striatum in vitro. Conditions: 0.5 nM ^3H-spiperone, rat striatum membranes, 37° C., 10 min. The protocol: By this method the inhibition by drugs of the binding of ^3 H-spiperone (=^3 H-spiroperidol) (0.5 nM) to dopamine D-2 receptors in membranes from rat corpus striatum is determined in vitro. Method and results in Hyttel & Larsen, J. Neurochem, 44, 1615-1622, 1985).
Male Wistar (Mol:Wistar) rats (125-250 g) are sacrificed and striatal tissue is dissected and weighed. The tissue is homogenized (Ultra Turrax, 10 sec.) in 10 ml of ice-cold 50 mM K-phosphate buffer pH 7.4 (at 25° C.). The homogenate is centrifuged twice at 20,000 g for 10 min. at 4° C. with rehomogenization of the pellet in 10 ml ice-cold buffer. The final pellet is homogenized in 1300 vol (w/v) ice-cold buffer.
Incubation tubes kept on ice in triplicate receive 100 μl of drug solution in water (or water for total binding) and 4000 μl Of tissue suspension (final tissue content corresponds to 3.08 mg original tissue). The binding experimental is initiated by addition of 100 μl of ^3 H-spiperone (final concentration 0.5 nM) and by placing the tubes in a 37° C. water bath. After incubation for 10 min. the samples are filtered under vacuum (0-50 mBar) through Whatman GF/F filters (25 mm). The tubes are rinsed with 5 ml ice-cold buffer which are then poured on the filters. Thereafter, the filters are washed with 2×5 ml of buffer. The filters are placed in counting vials and 4 ml of appropriate scintillation fluid (e.g. Picofluor ™15) are added. After shaking for 1 h and storage 2 hrs in the dark the content of radioactivity is determined by liquid scintillation counting. Specific binding is obtained by subtracting the nonspecific binding in the presence of 10 μM of 6,7-ADTN.
For determination of the inhibition of binding five concentrations of drugs covering 3 decades are used.
The measured cpm are plotted against drug concentration on semilogarithmic paper and the best fitting S-shaped curve is drawn. […] England, specific activity 15-25 Ci/mmol.

Sequence of dopamine D-2 receptors in rat corpus striatum (P61169 whole entry): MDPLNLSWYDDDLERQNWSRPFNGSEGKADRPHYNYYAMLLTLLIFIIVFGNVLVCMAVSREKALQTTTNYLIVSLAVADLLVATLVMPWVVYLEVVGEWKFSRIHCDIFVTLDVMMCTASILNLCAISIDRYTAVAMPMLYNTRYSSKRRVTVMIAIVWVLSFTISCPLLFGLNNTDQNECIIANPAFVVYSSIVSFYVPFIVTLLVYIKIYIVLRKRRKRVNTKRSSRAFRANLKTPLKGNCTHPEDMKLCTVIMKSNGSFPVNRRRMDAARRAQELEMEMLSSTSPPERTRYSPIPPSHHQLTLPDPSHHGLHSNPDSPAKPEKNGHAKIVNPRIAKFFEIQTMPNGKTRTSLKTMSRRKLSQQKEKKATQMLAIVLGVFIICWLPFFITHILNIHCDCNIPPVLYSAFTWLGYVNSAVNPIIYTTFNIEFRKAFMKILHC
T1 sequence (P14842 whole entry): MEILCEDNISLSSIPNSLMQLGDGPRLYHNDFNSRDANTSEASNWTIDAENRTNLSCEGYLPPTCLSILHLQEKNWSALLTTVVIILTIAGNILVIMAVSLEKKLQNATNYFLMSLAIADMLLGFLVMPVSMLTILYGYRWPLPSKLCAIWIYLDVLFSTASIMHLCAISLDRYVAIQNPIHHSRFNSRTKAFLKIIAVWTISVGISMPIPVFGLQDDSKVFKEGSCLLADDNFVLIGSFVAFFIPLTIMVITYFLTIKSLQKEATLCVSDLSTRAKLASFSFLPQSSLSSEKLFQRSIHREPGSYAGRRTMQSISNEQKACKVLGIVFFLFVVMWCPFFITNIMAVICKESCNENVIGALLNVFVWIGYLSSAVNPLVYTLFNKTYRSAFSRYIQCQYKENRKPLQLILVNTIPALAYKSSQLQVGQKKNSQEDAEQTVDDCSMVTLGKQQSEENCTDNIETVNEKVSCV

`CC(C)N1CCN(CCN2CCC(n3cc(-c4ccccc4)c4cc(Cl)ccc43)CC2)C1=O` [Compound 4q, 5-Chloro-3-phenyl-1-[1-[2-[3-(2-propyl)imidazolidin-2-on-1-yl]ethyl]-4-piperidyl)-1H-indole]: the results for the IC50 in test [1] and in test [2] were 25 nM and 3000 nM, respectively.
On the same counts, the results for `Cc1ccc2c(c1)c(-c1ccc(F)cc1)cn2C1CCN(CCN2CCN(C(C)C)C2=O)CC1` [Compound 4h, 3-(4-Fluorophenyl)-5-methyl-1-[1-[2-[3-(2-propyl)imidazolidin-2-on-1-yl]ethyl]-4-piperidyl)-1H-indole, oxalate] are 2.7 nM and 1100 nM.
As to `Cc1ccc2c(c1)c(-c1ccc(F)cc1)cn2C1CCN(C)CC1` [Compound 11a, 3-(4-Fluorophenyl)-5-methyl-1-(1-methyl-4-piperidyl)-1H-indole, fumarate], the IC50 in test [1] turned out to be 4.5 nM; in test [2] it was 540 nM.
Consider `Cc1c(-c2ccccc2)c2cc(Cl)ccc2n1C1=CCN(C)CC1` [Compound 6e, 5-Chloro-2-methyl-1-(1-methyl-1,2,3,6-tetrahydropyridin-4-yl)-3-phenyl-1H-indole, oxalate], for which the IC50 worked out at 9.4 nM in test [1] and 1000 nM in test [2].
For `CNC(=O)N(C)CCN1CCC(n2cc(-c3ccc(F)cc3)c3cc(C)ccc32)CC1` [Compound 15a, 1-[1-[2-(1,3-Dimethyl-1-ureido)ethyl]-4-piperidyl]-3-(4-fluorophenyl)-5-methyl-1H-indole, hydrochloride], the figures for the IC50 in test [1] and in test [2] were 1.8 nM and > 1000 nM, respectively.
The corresponding values for `Cc1ccc2c(c1)c(-c1ccc(F)cc1)cn2N1CCN(C)CC1` [Compound 20a, 3-(4-Fluorophenyl)-5-methyl-1-(1-methylpiperazin-4-yl)-1H-indole] are 13 nM and 3900 nM.
Turning to `O=C1NCCN1CCN1CCC(n2nc(-c3ccc(F)cc3)c3cc(C(F)(F)F)ccc32)CC1` [Compound 4u, 3-(4-Fluorophenyl)-1-[1-[2-(imidazolidin-2-on-1-yl)ethyl]-4-piperidyl]-5-trifluoromethyl-1H-indazole], the IC50 came out at 220 nM in test [1] and 42000 nM in test [2].
The corresponding values for `Cc1ccc2c(c1)c(-c1ccc(F)cc1)cn2C1CCN(CCNC(=O)N(C)C)CC1` [Compound 13b, 1-[1-[2-(3,3-Dimethyl-1-ureido)ethyl]-4-piperidyl]-3-(4-fluorophenyl)-5-methyl-1H-indole] are 2.3 nM and 260 nM.
`Cc1ccc2c(c1)c(-c1ccc(F)cc1)cn2C1CCN(CCN2CCNC2=O)CC1` [Compound 4g, 3-(4-Fluorophenyl)-1-[1-[2-(imidazolidin-2-on-1-yl)ethyl]-4-piperidyl]-5-methyl-1H-indole]: the IC50 in test [1] came out at 1.6 nM; in test [2] it was 920 nM.
Consider `CC(=O)N1CCN(CCN2CCC(n3cc(-c4ccc(F)cc4)c4cc(C)ccc43)CC2)C1=O` [Compound 21a, 1-[1-[2-(3-Acetylimidazolidin-2-on-1-yl)ethyl]-4-piperidyl]-3-(4-fluorophenyl)-5-methyl-1H-indole, oxalate], for which the results for the IC50 in test [1] and in test [2] were 18 nM and 890 nM, respectively.
With `O=C1NCCN1CCN1CC=C(n2cc(-c3ccc(F)cc3)c3cc(C(F)(F)F)ccc32)CC1` [Compound 6f, 3-(4-Fluorophenyl)-1-[1-[2-(imidazolidin-2-on-1-yl)ethyl]-1,2,3,6-tetrahydropyridin-4-yl]-5-trifluoromethyl-1H-indole], the IC50 was 3.6 nM in test [1] and 440 nM in test [2].
On the same counts, the results for `CN1CCN(CCN2CCC(n3cc(-c4ccc(F)cc4)c4ccc(Cl)cc43)CC2)C1=O` [Compound 4a, 6-Chloro-3-(4-fluorophenyl)-1-[1-[2-(3-methylimidazolidin-2-on-1-yl)ethyl]-4-piperidyl)-1H-indole, maleate] are 1.5 nM and 46 nM.
The corresponding values for `CC(C)N1CCN(CCN2CCC(n3cc(-c4ccc(F)cc4)c4ccccc43)CC2)C1=O` [Compound 4l, 3-(4-Fluorophenyl)-1-[1-[2-[3-(2-propyl)imidazolidin-2-on-1-yl]ethyl]-4-piperidyl]-1H-indole, hydrochloride, hydrate] are 3.3 nM and 74 nM.
On the same counts, the results for `Cc1ccc2c(c1)c(-c1ccc(F)cc1)c(C)n2C1=CCN(C)CC1` [Compound 6b, 2,5-Dimethyl-3-(4-fluorophenyl)-1-(1-methyl-1,2,3,6-tetrahydropyridin-4-yl)-1H-indole] are 3.8 nM and 710 nM.
Take `Cc1ccc2c(c1)c(-c1ccc(F)cc1)cn2C1=CCN(C)CC1` [Compound 6d, 3-(4-Fluorophenyl)-5-methyl-1-(1-methyl-1,2,3,6-tetrahydropyridin-4-yl)-1H-indole, maleate]: the IC50 in test [1] was 4.4 nM; in test [2], 32 nM.
On to `O=C1NCCN1CCN1CCC(n2nc(-c3ccc(F)cc3)c3ccc(Cl)cc32)CC1` [Compound 4t, 6-Chloro-3-(4-fluorophenyl)-1-[1-[2-(imidazolidin-2-on-1-yl)ethyl]-4-piperidyl]-1H-indazole], for which the values for the IC50 in test [1] and in test [2] were 38 nM and 1900 nM, respectively.
On the same counts, the results for `Cc1c(-c2ccccc2)c2ccccc2n1C1CCN(CCN2CCNC2=O)CC1` [Compound 7c, 1-[1-[2-(Imidazolidin-2-on-1-yl)ethyl]-4-piperidyl]-2-methyl-3-phenyl-1H-indole] are 7.8 nM and 5300 nM.
For the compound `O=C1OCCN1CCN1CCC(n2cc(-c3ccc(F)cc3)c3cc(F)ccc32)CC1` [Compound 4o, 5-Fluoro-3-(4-fluorophenyl)-1-[1-[2-(oxazolidin-2-on-3-yl)ethyl]-4-piperidyl]-1H-indole], the figures for the IC50 in test [1] and in test [2] were 37 nM and 790 nM, respectively.
On the same counts, the results for `Cc1ccc2c(c1)c(-c1ccc(F)cc1)c(C)n2C1=CCN(CCN2CCNC2=O)CC1` [Compound 6a, 2,5-Dimethyl-3-(4-fluorophenyl)-1-[1-[2-(imidazolidin-2-on-1-yl)ethyl]-1,2,3,6-tetrahydropyridin-4-yl]-1H-indole] are 2.8 nM and 6300 nM.
On the same counts, the results for `CC(C)N1CCN(CCN2CCC(n3cc(-c4ccc(F)cc4)c4ccc(Cl)cc43)CC2)C1=O` [Compound 4c, 6-Chloro-3-(4-fluorophenyl)-1-[1-[2-[3-(2-propyl)imidazolidin-2-on-1-yl]ethyl]-4-piperidyl]-1H-indole, hydrochloride, hydrate] are 3.7 nM and 42 nM.
On the same counts, the results for `Cc1ccc2c(c1)C(c1ccc(F)cc1)CN2C1CCN(CCN2CCNC2=O)CC1` (stereo not shown) [Compound 18b, 2,3-Dihydro-3-(4-fluorophenyl)-1-[1-[2-(imidazolidin-2-on-1-yl)ethyl]-4-piperidyl]-5-methyl-1H-indole] are 4.3 nM and 1100 nM.
Regarding `Cc1ccc2c(c1)c(-c1ccc(F)cc1)cn2C1CCN(CCO)CC1` [Compound 16a, 3-(4-Fluorophenyl)-1-[1-(2-hydroxyethyl)-4-piperidyl]-5-methyl-1H-indole, oxalate], the IC50 amounted to 22 nM in test [1] and 1500 nM in test [2].
The corresponding values for `Cc1ccc2c(c1)c(-c1ccc(F)cc1)c(C)n2C1CCN(C)CC1` [Compound 9a, 2,5-Dimethyl-3-(4-fluorophenyl)-1-(1-methyl-4-piperidyl)-1H-indole] are 5.3 nM and 2600 nM.

As a reminder, the IC50 is the concentration needed to halve the response being measured. A higher IC50 goes with a need for much substance.
